Source: patent US9296732B2, “Substituted benzamides and their uses” (The Board of Trustees of the Leland Stanford Junior …, priority 2012, dated 2016)
pIC50: −log10 of the molar value.

test system: RCC4; assay: XTT cell viability assay in RCC4 parental (VHL-deficient) cells; type: cell-based; details: Homo sapiens, 96 h, four days with drug, second TABLE 1 (Examples 39-55)
Description: (§1) RCC4 parental and RCC4 with VHL-reintroduced (RCC4/VHL), SN12C and SN12C-CSCG-VHL shRNA were maintained in DMEM supplemented with 10% FCS.
(§2) For 2,3-bis[2-methoxy-4-nitro-5-sulfophenyl]-2H-tetrazolium-5-carboxanilide (XTT) assays, five thousand cells were plated in 96-well plates. The next day, vehicle (DMSO) or drug was added by serial dilution. Four days later, media were aspirated, XTT solution (0.3 mg/ml of XTT (Sigma), 2.65 mg/ml N-methyl dibenxopyrazine methyl sulfate (Simga) in phenol red-free media) was added, and the plates were incubated at 37° C. for 1-2 hours. Metabolism of XTT was quantified by measuring the absorbance at 450 nm. IC50s were calculated using linear interpolation. For clonogenic survival assays, three hundred cells were plated per 60 mm tissue culture dish. The cells were allowed to attach overnight and then treated with vehicle or drug for 14 days. Colonies were fixed and stained with crystal violet (0.1% crystal violet in 95% ethanol). All conditions were measured in triplicate and each experiment was done in duplicate or triplicate. To determine necrosis, cells were treated with drug for a given time point. Media and cells were collected, centrifugated, and resuspended in 0.4% trypan blue (Invitrogen). Live and dead cells were counted on a hematocytometer.
(§3) The designation A reflects an IC50 of <1 nM; B reflects an IC50 ranging from 1 to 20 nM; and C is an IC50 of >20 nM. The designation “a” reflects a ratio of RCC4/RCC-VHL+ ranging from 1 to ≦10; “b” reflects from 10 to ≦100; “c” reflects a ratio of >100. Compounds 1-29 have an IC50 value of ≦10 μM when tested in the above assay.

SMILES | pIC50
Cc1oc(-c2ccc(C(=O)NCc3cccnc3)cc2)nc1CS(=O)(=O)[C@H]1CC[C@H](N2CCCCC2)C1 [Example 49] | > 9.00
Cc1oc(-c2ccc(C(=O)NCc3cccnc3)cc2)nc1CS(=O)(=O)C1CCN(C2CCCCC2)CC1 [Example 55] | > 9.00

same assay, conditions: four days with drug, second TABLE 1 (Examples 39-55)

SMILES | pIC50
Cc1oc(-c2ccc(C(=O)NCc3cccnc3)cc2)nc1CS(=O)(=O)[C@H]1CC[C@@H](N)CC1 [Example 41, 4-(4-(((1s,4s)-4-aminocyclohexylsulfonyl)methyl)-5-methyloxazol-2-yl)-N-(pyridin-3-ylmethyl)benzamide] | < 7.70

test system: RCC4/VHL; assay: XTT cell viability assay, RCC4 with VHL-reintroduced (RCC4/VHL) versus RCC4, selectivity ratio; type: cell-based; details: first TABLE 1 (II series)
Description: as §1, §2, §3

SMILES | Ratio = IC50RCC4/VHL/IC50RCC4
O=C(Nc1cccnc1)c1ccc(CNS(=O)(=O)c2ccco2)cc1 [II-8, N-(3-Pyridinyl)-4-{[(2-furanylsulfonyl)amino]methyl}benzamide] | a (a ratio of RCC4/RCC-VHL+ ranging from 1 to ≦10)
O=C(Nc1cccnc1)c1ccc(CNS(=O)(=O)c2cccnc2)cc1 [II-1, N-(3-Pyridinyl)-4-{[(3-pyridylsulfonyl)amino]methyl}benzamide] | a (a ratio of RCC4/RCC-VHL+ ranging from 1 to ≦10)
O=C(Nc1cccnc1)c1ccc(CNS(=O)(=O)c2cccs2)cc1 [II-4, N-(3-Pyridinyl)-4-{[(2-thienylsulfonyl)amino]methyl}benzamide] | a (a ratio of RCC4/RCC-VHL+ ranging from 1 to ≦10)
O=C(Nc1cccnc1)c1ccc(CNS(=O)(=O)c2ccsc2)cc1 [II-5, N-(3-Pyridinyl)-4-{[(3-thienylsulfonyl)amino]methyl}benzamide] | a (a ratio of RCC4/RCC-VHL+ ranging from 1 to ≦10)

same assay, conditions: second TABLE 1 (Examples 39-55)

SMILES | Ratio (IC50 RCC4 Proficient VHL)/IC50 RCC4 Deficient VHL)
Cc1oc(-c2ccc(C(=O)NCc3cccnc3)cc2)nc1CS(=O)(=O)[C@H]1CC[C@H](N2CCCCC2)C1 [Example 49] | b (from 10 to ≦100)
Cc1oc(-c2ccc(C(=O)NCc3cccnc3)cc2)nc1CS(=O)(=O)C1CCN(CC(C)C)CC1 [Example 53, 4-(5-methyl-4-[[1-(2-methylpropyl)piperidine-4-sulfonyl]methyl]-1,3-oxazol-2-yl)-N-(pyridin-3-ylmethyl)benzamide] | a (a ratio of RCC4/RCC-VHL+ ranging from 1 to ≦10)
Cc1oc(-c2ccc(C(=O)NCc3cccnc3)cc2)nc1CS(=O)(=O)[C@H]1CC[C@H](N)C1 [Example 47] | b (from 10 to ≦100)
Cc1oc(-c2ccc(C(=O)NCc3cccnc3)cc2)nc1CS(=O)(=O)[C@H]1CC[C@H](N2CCCCC2)CC1 [Example 46] | b (from 10 to ≦100)
Cc1oc(-c2ccc(C(=O)NCc3cccnc3)cc2)nc1CS(=O)(=O)[C@H]1CC[C@@H](N)CC1 [Example 41, 4-(4-(((1s,4s)-4-aminocyclohexylsulfonyl)methyl)-5-methyloxazol-2-yl)-N-(pyridin-3-ylmethyl)benzamide] | b (from 10 to ≦100)
Cc1oc(-c2ccc(C(=O)NCc3cccnc3)cc2)nc1CS(=O)(=O)C1CCN(C2CCCCC2)CC1 [Example 55] | a (a ratio of RCC4/RCC-VHL+ ranging from 1 to ≦10)
Cc1oc(-c2ccc(C(=O)NCc3cccnc3)cc2)nc1CS(=O)(=O)[C@@H]1CC[C@H](N2CCCC2)C1 [Example 51] | b (from 10 to ≦100)
Cc1oc(-c2ccc(C(=O)NCc3cccnc3)cc2)nc1CS(=O)(=O)[C@@H]1CC[C@H](N2CCCCC2)C1 [Example 52] | a (a ratio of RCC4/RCC-VHL+ ranging from 1 to ≦10)
Cc1oc(-c2ccc(C(=O)NCc3cccnc3)cc2)nc1CS(=O)(=O)C1CCN(C)CC1 [Example 40, 4-(5-Methyl-4-((1-methylpiperidin-4-ylsulfonyl)methyl)oxazol-2-yl)-N-(pyridin-3-ylmethyl)benzamide] | b (from 10 to ≦100)
Cc1oc(-c2ccc(C(=O)NCc3cccnc3)cc2)nc1CS(=O)(=O)[C@H]1CC[C@H](N)CC1 [Example 44, 4-(4-[[(4-Aminocyclohexane)sulfonyl]methyl]-5-methyl-1,3-oxazol-2-yl)-N-(pyridin-3-ylmethyl)benzamide] | b (from 10 to ≦100)
Cc1oc(-c2ccc(C(=O)NCc3cccnc3)cc2)nc1CS(=O)(=O)C1CCN(C2CCCC2)CC1 [Example 54] | b (from 10 to ≦100)
Cc1oc(-c2ccc(C(=O)NCc3cccnc3)cc2)nc1CS(=O)(=O)C1CCNCC1 [Example 39, 4-(5-Methyl-4-((piperidin-4-ylsulfonyl)methyl)oxazol-2-yl)-N-(pyridin-3-ylmethyl)benzamide] | b (from 10 to ≦100)
